In brackets after ≈: the same amount, converted by molar mass.

Data on 28 molecules can be found in ChEMBL document CHEMBL4819154, “Discovery of quinuclidine modulators of cellular progranulin” (Bioorg Med Chem Lett, 2021).

A short description of data set [1]: Increase of PGRN level in mouse microglial BV-2 cell relative to control. It counts as functional.
Data set [2] has as its target Muscarinic acetylcholine receptor M3 (Homo sapiens, UniProt P20309). As to the kind of experiment: Antagonist activity at muscarinic M3 receptor (unknown origin).
Data set [3] can be described thus: Aqueous solubility of compound in pH 7.4 PBS measured. It counts as physicochemical.
Data set [4] is described as follows: Unbound partition coefficient of the compound in rat incubated for 8 hrs. The following applies: brain, read-out: K(p,uu,brain). It is filed as ADME.
Data set [5] in a line: Half life in po dosed rat. It counts as ADME, organism-based. The following applies: in vivo.
A short description of data set [6]: Intrinsic clearance in cynomolgus monkey hepatocytes. It counts as ADME, cell-based, Macaca fascicularis, Hepatocyte.
Data set [7] is described as follows: Protein binding in rat assessed as unbound fraction. It is filed as ADME.
Data set [8] can be described thus: Cmax in rat. The following applies: in vivo. It is filed as ADME.
A short description of data set [9]: Oral bioavailability in mouse. It counts as ADME, organism-based. The following applies: in vivo, dose 10 mg/kg.
Data set [10] is described as follows: Oral bioavailability in rat. It counts as ADME, organism-based. The following applies: in vivo, dose 10 mg/kg.
Data set [11] is described as follows: Half life in iv dosed mouse. It is filed as ADME, organism-based. The following applies: in vivo.
The nature of data set [12]: Half life in rat hepatocytes. It is filed as ADME, cell-based, Hepatocyte.
A short description of data set [13]: Clearance in mouse. It counts as ADME, organism-based. The following applies: in vivo.
The nature of data set [14]: Protein binding in mouse assessed as unbound fraction. It is filed as ADME.
The nature of data set [15]: Apparent permeability from apical to basolateral side in dog MDCK-MDR1 cells. It is filed as ADME, cell-based, Canis lupus familiaris.
Data set [16] in a line: Half life in po dosed mouse. It is filed as ADME, organism-based. The following applies: in vivo.
A short description of data set [17]: Intrinsic clearance in human hepatocytes. It counts as ADME, cell-based, Hepatocyte.
Data set [18] can be described thus: Volume of distribution at steady state in rat. The note with it: in vivo, read-out: Vdss. It counts as ADME.
Data set [19] can be described thus: Clearance in rat. It counts as ADME. The note with it: in vivo.
A short description of data set [20]: Half life in iv dosed rat. It is filed as ADME, organism-based. The note with it: in vivo.
Data set [21] can be described thus: Protein binding in human assessed as unbound fraction. It is filed as ADME.
Data set [22] is described as follows: Protein binding in rat brain assessed as unbound fraction. It is filed as ADME, tissue-based.
Data set [23] in a line: Half life in cynomolgus monkey hepatocytes. It counts as ADME, cell-based, Macaca fascicularis, Hepatocyte.
Data set [24] is described as follows: Volume of distribution at steady state in mouse. It is filed as ADME, organism-based. The following applies: in vivo, read-out: Vdss.
The nature of data set [25]: Unbound partition coefficient of the compound in mouse incubated for 8 hrs. It is filed as ADME. The note with it: brain, read-out: K(p,uu,brain).
Data set [26] can be described thus: Half life in human hepatocytes. It is filed as ADME, cell-based, Hepatocyte.
Data set [27] is described as follows: Cmax in mouse. It counts as ADME, organism-based. The following applies: in vivo.
The nature of data set [28]: Protein binding in mouse brain assessed as unbound fraction. It counts as ADME, tissue-based.
Data set [29] can be described thus: Cmax in cynomolgus monkey. It counts as ADME, Macaca fascicularis. The following applies: in vivo.
Data set [30] can be described thus: Volume of distribution at steady state in cynomolgus monkey. The following applies: in vivo, read-out: Vdss. It counts as ADME, Macaca fascicularis.
The nature of data set [31]: Half life in iv dosed cynomolgus monkey. It counts as ADME, organism-based, Macaca fascicularis. The note with it: in vivo.
Data set [32] is described as follows: Clearance in cynomolgus monkey. The note with it: in vivo, dose 1 mg/kg. It is filed as ADME, Macaca fascicularis.
Data set [33] in a line: Unbound partition coefficient of the compound in cynomolgus monkey incubated for 8 hrs. The note with it: brain, read-out: K(p,uu,brain). It is filed as ADME, cell-free, Macaca fascicularis, Brain/Plasma.
The nature of data set [34]: Oral bioavailability in cynomolgus monkey. It counts as ADME, organism-based, Macaca fascicularis. The note with it: in vivo, dose 10 mg/kg.
Data set [35] can be described thus: Half life in po dosed cynomolgus monkey. The note with it: in vivo. It counts as ADME, organism-based, Macaca fascicularis.
Data set [36] can be described thus: Protein binding in cynomolgus monkey assessed as unbound fraction. It counts as ADME, Macaca fascicularis.

Chain of Muscarinic acetylcholine receptor M3 (P20309 whole entry): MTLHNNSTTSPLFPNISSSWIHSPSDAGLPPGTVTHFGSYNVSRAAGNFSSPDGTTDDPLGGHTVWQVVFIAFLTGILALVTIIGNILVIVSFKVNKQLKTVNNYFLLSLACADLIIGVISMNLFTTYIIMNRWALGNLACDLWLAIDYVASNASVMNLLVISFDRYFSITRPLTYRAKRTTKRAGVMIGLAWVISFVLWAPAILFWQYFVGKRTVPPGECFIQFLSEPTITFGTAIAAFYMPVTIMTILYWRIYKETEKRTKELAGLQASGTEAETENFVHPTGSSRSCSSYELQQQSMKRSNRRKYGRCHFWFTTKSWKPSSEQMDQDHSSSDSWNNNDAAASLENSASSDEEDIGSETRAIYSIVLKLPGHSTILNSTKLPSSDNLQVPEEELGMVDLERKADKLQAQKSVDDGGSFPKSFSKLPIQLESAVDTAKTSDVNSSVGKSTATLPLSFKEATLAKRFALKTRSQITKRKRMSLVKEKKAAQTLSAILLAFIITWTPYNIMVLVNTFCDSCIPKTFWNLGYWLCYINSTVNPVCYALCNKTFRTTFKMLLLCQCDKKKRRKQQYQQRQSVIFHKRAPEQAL

Regarding `O=C(NC1CN2CCC1CC2)C(=O)N1CCc2ccccc2[C@@H]1c1ccc(F)cc1` (some centres undefined), in data set [1], the EC50 amounted to 1.61 µM.
For `O=C(OC1CN2CCC1CC2)N1CCc2ccccc2[C@@H]1c1ccc(F)cc1F` (some centres undefined), the half-inhibitory concentration (IC50) in [2] was found to be 9.4 µM. Besides, the EC50 in data set [1] worked out at 0.247 µM.
Turning to `O=C(OC1CN2CCC1(F)CC2)N1CCc2ccccc2C1c1ccc(F)cc1` (single isomer, unassigned), the EC50 in [1] turned out to be 1.25 µM.
`O=C(C(O)C1CN2CCC1CC2)N1CCc2ccccc2[C@@H]1c1ccc(F)cc1` (some centres undefined) gave an EC50 in data set [1] of 0.895 µM.
For `CN(C(=O)N1CCc2ccccc2[C@@H]1c1ccc(F)cc1)C1CN2CCC1CC2` (some centres undefined), in data set [1], the EC50 turned out to be 1.03 µM.
Still for that read-out and setting: for `C[C@]1(c2ccc(F)cc2)c2ccccc2CCN1C(=O)OC1CN2CCC1CC2` (some centres undefined) the value was 3.46 µM; for `O=S(=O)(CC1CN2CCC1CC2)N1CCc2ccccc2[C@@H]1c1ccc(F)cc1` (some centres undefined), 1.7 µM.
In turn, `O=C(OC1CN2CCC1CC2)N1CCc2ccccc2[C@@H]1c1ccc(F)cc1` (some centres undefined) yielded a solubility in data set [3] of 1990 µM (≈ 757 µg/mL). Besides, the Kp uu at 8 h worked out at 0.26 in data set [4] and 1.08 in data set [25]. For the same molecule, the half-life in data set [5] was found to be 2.1 min; in data set [11], 2.1 min; in data set [12], 29 min; in data set [16] it was 4.1 min; in [20], 1.9 min; in [23] it was 10 min. For the same molecule, in data set [26], the half-life was more than 240 min. The CLH amounted to 0.0698 mL/min/kg in [6] and 0.023 mL/min/kg in [17]. Also, the fraction unbound in [7] was 0.086; in data set [14] it was 0.02; in [21], 0.06; in data set [22], 0.008; in data set [28], 0.008. In addition, the results for the peak concentration (Cmax) in data set [8] and in [27] were 37 nM and 28 nM, respectively. Moreover, the values for the bioavailability in data set [9] and in [10] were 64% and 16%, respectively. Also, the clearance in [13] was 44.2 mL/min/kg; in data set [19], 198 mL/min/kg. Moreover, in [2], the half-maximal inhibitory concentration (IC50) came out at 17 µM. Also, in [15], the Papp A→B turned out to be 7.59 ×10⁻⁶ cm/s. Besides, the Vd in data set [18] is 4.65 L/kg; in [24], 4.91 L/kg. This molecule also returned an EC50 in [1] of 0.257 µM.
`O=C(COC1CN2CCC1CC2)N1CCc2ccccc2[C@@H]1c1ccc(F)cc1` (some centres undefined): it took 0.811 µM to reach a half-maximal effect in data set [1] (EC50).
In data set [1], `Fc1ccc([C@@H]2c3ccccc3CCN2CCC2CN3CCC2CC3)cc1` (some centres undefined) had a concentration for a half-maximal effect (EC50) of more than 10 µM.
On the same count and under the same terms, as for `COc1ccc([C@H]2c3ccccc3CCN2C(=O)OC2CN3CCC2CC3)cc1` (some centres undefined), the figure is 2.87 µM; as for `O=C(OCC1CN2CCC1CC2)N1CCc2ccccc2[C@@H]1c1ccc(F)cc1` (some centres undefined), 1.99 µM; as for `O=S(=O)(NC1CN2CCC1CC2)N1CCc2ccccc2[C@@H]1c1ccc(F)cc1` (some centres undefined), more than 10 µM.
For the molecule `O=C(NC1CN2CCC1CC2)N1CCc2ccccc2[C@@H]1c1ccc(F)cc1` (some centres undefined), the solubility in data set [3] was 5960 µM (≈ 2260 µg/mL). It took 10 µM to reach half-maximal inhibition in data set [2] (IC50). For the same molecule, in data set [15], the Papp A→B came to 0.95 ×10⁻⁶ cm/s. The molecule further registered an EC50 in data set [1] of 0.265 µM.
In turn, `O=C(O[C@@H]1CN2CCC1CC2)N1CCc2ccccc2[C@@H]1c1ccccc1` gave a concentration for half-maximal inhibition (IC50) in data set [2] of 0.733 µM. In data set [1], the EC50 is 1.83 µM.
For `O=C(OC1CN2CCC1CC2)N1CCc2ccccc2[C@@H]1c1ccc(Cl)cc1` (some centres undefined) the same measures were 1.48 µM and 0.339 µM.
For the molecule `O=C(OC1CN2CCC1CC2)N1CCc2ccccc2[C@@H]1c1cccc(F)c1` (some centres undefined), the EC50 in data set [1] is 3.55 µM.
Same read-out and setting: as for `O=C(OCCC12CCN(CC1)CC2)N1CCc2ccccc2[C@@H]1c1ccc(F)cc1`, the figure is more than 10 µM; as for `CS(=O)(=O)c1ccc([C@H]2c3ccccc3CCN2C(=O)OC2CN3CCC2CC3)cc1` (some centres undefined), more than 10 µM; as for `O=C(OC1CN2CCC1CC2)N1CCc2ccccc2[C@@H]1c1cccc(F)c1F` (some centres undefined), 1.11 µM.
Turning to `O=C(CC1CN2CCC1CC2)N1CCc2ccccc2[C@@H]1c1ccc(F)cc1` (some centres undefined), in data set [2], the half-maximal inhibitory concentration (IC50) amounted to 30 µM. Further, the Papp A→B in data set [15] was 2.68 ×10⁻⁶ cm/s. Also, the 50% effective concentration (EC50) in data set [1] is 0.222 µM.
`O=C(OC1CN2CCC1CC2)N1CCc2ccccc2[C@@H]1c1ccc(OC(F)(F)F)cc1` (some centres undefined): the concentration giving a half-maximal response (EC50) in data set [1] was 2.6 µM.
The molecule `O=C(OC1CN2CCC1CC2)N1CCc2ccccc2[C@H]1c1ccc(F)cc1` (some centres undefined) returned an EC50 in [1] of more than 10 µM.
`CC1(C)C(OC(=O)N2CCc3ccccc3[C@@H]2c2ccc(F)cc2)C2CCN1CC2` (some centres undefined) had an EC50 in [1] of 0.574 µM.
Take `O=C(OC1CN2CCC1CC2)N1CCc2ccccc2[C@@H]1c1ccc(F)c(F)c1` (some centres undefined): the IC50 in data set [2] is 10 µM. The molecule further yielded a concentration for a half-maximal effect (EC50) in data set [1] of 2.03 µM.
In data set [3], `O=C(OCC12CCN(CC1)CC2)N1CCc2ccccc2[C@H]1c1ccc(F)cc1` registered a solubility of 2670 µM (≈ 1050 µg/mL). Moreover, the Kp uu at 8 h in data set [4] came to 0.4; in [25], 0.09; in data set [33], 0.33. The half-life was 5.2 min in data set [5]; 2.2 min in [11]; 17 min in [12]; 2.9 min in data set [16]; 6.4 min in data set [31]; 2.2 min in [20]. Also, the half-life in [23] was 22 min; in data set [26], 198 min; in data set [35], 6.8 min. For the same molecule, the CLH in data set [6] stood at 0.0318 mL/min/kg; in data set [17] it was 0.0397 mL/min/kg. Moreover, the fraction unbound in data set [7] was 0.096; in [14], 0.048; in data set [21], 0.086; in data set [22], 0.007; in [36], 0.176; in data set [28], 0.008. Moreover, the figures for the maximum concentration (Cmax) in [8], in data set [29] and in [27] were 17 nM, 32 nM and 30 nM, respectively. Also, the bioavailability stood at 41% in data set [9], 16% in [10] and 42% in [34]. Further, the clearance is 51.8 mL/min/kg in data set [13], 102 mL/min/kg in data set [19] and 20.7 mL/min/kg in data set [32]. Further, in data set [15], the Papp A→B came out at 3.01 ×10⁻⁶ cm/s. The Vd was found to be 16.2 L/kg in [18], 9.6 L/kg in data set [30] and 7.23 L/kg in data set [24]. The molecule also came in with an EC50 in [1] of 0.146 µM.
In [2], `O=C(O[C@H]1CN2CCC1CC2)N1CCc2ccccc2[C@@H]1c1ccccc1` [SOLIFENACIN] had a half-inhibitory concentration (IC50) of 0.024 µM. For the same molecule, the midpoint of the response in data set [1], the EC50, lay at 1.3 µM.
In data set [1], `O=C(OC1CN2CCC1CC2)N1CCc2ccccc2[C@@H]1c1ccc(OC2CC2)cc1` (some centres undefined) came in with a concentration giving a half-maximal response (EC50) of more than 10 µM.
